Measured values: patent US8940717B2, “Plant disease controlling composition and method for controlling plant disease” (Sumitomo Chemical Company, Limited, priority 2010, dated 2015)
Read-outs that look alike come from different tables or passages of the source.

Tested on: gray mold fungus (Botrytis cinerea)
Test: Cucumber leaf disk preventive test against gray mold
Format: in vivo
Details: for pest or weed control at 0.5 ppm / pest or weed control at 5 ppm: Botrytis cinerea, foliar, 96 h, read-out: preventive value (%)
Experimental: To a SUS beaker are added 30 parts of the present compound (racemate), 5 parts of Soprophor FLK (polyoxyethylene tristyrylphenyl ether phosphate, produced by Rhodia Nicca Ltd.), 65 parts of ion-exchange water and 150 parts of glass beads (1.0 mm diameter). The mixture is subjected to grinding at a velocity of 1000 rpm with cooling to 10° C., and thereafter the glass beads are separated, so as to obtain a flowable formulation comprising the present compound (racemate).
True leaf of cucumber is punched out with cork borer to 13 mm in diameter to prepare a leaf disk. In 24 well microwell plate that is dispensed with 1 ml 0.8% water agar, the leaf disk is placed such that the upper side of the leaf is in an upward direction. Thereto is added 20 micro liter a testing solution prepared by mixing the flowable formulation of the present compound (racemate) prepared by the above procedure and a commercial wettable powder of fludioxonil or chlorothalonil to a predetermined concentration to treat the leaf disk.
After confirming that the testing medical solution is dried, conidium of gray mold fungus (Botrytis cinerea) is suspended into potato dextrose broth (DIFCO) in a density of about 10^5 conidium/mL and is then subjected to a spray inoculation. After leaving to stand the leaf disk in a growth chamber set up at 15° C. for four days, an onset area on the leaf is measured and then calculated an onset area rate (hereinafter, referred to as an onset area rate of treated group).
The same operation is carried out with 20 micro liter water instead of 20 micro liter a testing medicine solution to calculate an onset area rate (hereinafter, referred to an onset area rate of non-treated group).
A preventive value is calculated from the above onset area rate of treated group and the onset area rate of non-treated group by the following equation: Preventive value (%)=100×(A−B)/A
A: an onset area rate of treated group
B: an onset area rate of non-treated group
The same operations as described in Test Example 1 are carried out with cyflufenamid, diethofencarb, dithianon, fluazinam, flusulfamide, fosetyl-Al, metrafenon, penflufen, phthalide, sedaxane, spiroxamine or tebufloquin, instead of fludioxonil or chlorothalonil, so as to calculate respective preventive values.
Also for comparison, the same operations as described in Test Example 1 are carried out with the exception that the testing medicine solution is substituted with a predetermined concentration of each dimethyl sulfoxide solution of the present compound (racemate), cyflufenamid, diethofencarb, dithianon, fluazinam, flusulfamide, fosetyl-Al, metrafenon, penflufen, phthalide, sedaxane, spiroxamine or tebufloquin, so as to calculate respective preventive values.
For comparison, the same operations as described in Test Example 1 are carried out with the exception that the testing medicine solution is substituted with a predetermined concentration of each dimethyl sulfoxide solution of fludioxonil or chlorothalonil, so as to calculate a preventive value.

[1] = partner fungicide alone 0.5 ppm, dimethyl sulfoxide solution, cucumber leaf disk, 15° C., four days
[2] = partner fungicide alone 5.0 ppm, dimethyl sulfoxide solution, cucumber leaf disk, 15° C., four days

SMILES	pest or weed control at 0.5 ppm [1]	pest or weed control at 5 ppm [2]	preventive value (%) [1]	preventive value (%) [2]	also measured
N#Cc1c(Cl)c(Cl)c(Cl)c(C#N)c1Cl [chlorothalonil]	15%	45%	–	–	–
O=C(Cc1ccccc1)N/C(=N\OCC1CC1)c1c(C(F)(F)F)ccc(F)c1F [cyflufenamid]	10%	15%	–	–	–
CCOc1ccc(NC(=O)OC(C)C)cc1OCC [diethofencarb]	0%	0%	–	–	–
N#Cc1sc2c(=O)c3ccccc3c(=O)c=2sc1C#N [dithianon]	15%	20%	–	–	–
O=[N+]([O-])c1cc(C(F)(F)F)c(Cl)c([N+](=O)[O-])c1Nc1ncc(C(F)(F)F)cc1Cl [fluazinam]	47%	52%	–	–	–
N#Cc1c[nH]cc1-c1cccc2c1OC(F)(F)O2 [fludioxonil]	–	–	–	–	pest or weed control at 0.5 ppm: 45%; pest or weed control at 5 ppm: 57%
O=[N+]([O-])c1ccc(NS(=O)(=O)c2ccc(Cl)c(C(F)(F)F)c2)c(Cl)c1 [flusulfamide]	–	–	–	–	pest or weed control at 0.5 ppm: 15%; pest or weed control at 5 ppm: 20%
CCO[PH](=O)O [fosetyl-Al]	–	–	15%	20%	–
COc1cc(C)c(C(=O)c2c(OC)ccc(Br)c2C)c(OC)c1OC [metrafenon]	–	–	10%	15%	–
Cc1nn(C)c(F)c1C(=O)Nc1ccccc1C(C)CC(C)C (stereo not shown) [penflufen]	–	–	10%	15%	–
O=C1OCc2ccccc21 [phthalide]	10%	15%	–	–	–
Cn1cc(C(=O)Nc2ccccc2C2CC2C2CC2)c(C(F)F)n1 (stereo not shown) [sedaxane]	–	–	20%	40%	–
CCCN(CC)CC1COC2(CCC(C(C)(C)C)CC2)O1 (stereo not shown) [spiroxamine]	10%	15%	–	–	–
CC(=O)Oc1c(C)c(C)nc2c(F)cc(C(C)(C)C)cc12 [tebufloquin]	–	–	10%	15%	–
